Assay results as given in patent EP2718307B1, “BETA-HAIRPIN PEPTIDOMIMETICS AS CXC4 ANTAGONISTS” (Polyphor AG, priority 2011, dated 2012).
Like-named read-outs stand apart in the source and are kept apart here. Bridge positions count the residues as written; N and C are the ends. Square brackets hold non-standard residues; d marks the D form. Peptide text beside a SMILES is read from it. Lys(iPr) = CC(C)NCCCC[C@H](N)C(=O)O; Orn(iPr) = CC(C)NCCC[C@H](N)C(=O)O

Assays:
[1] = molecular target: T1, CXCR4 receptor (Homo sapiens, UniProt P61073); test: Chemotactic assay (cell migration assay): response of Namalwa cells to an SDF-1 gradient; type: cell-based
T1 construct: Namalwa cells (CXCR4 natively expressing non-adherent cells, ATCC CRL-1432); host or cells: Namalwa cells
Protocol: Namalwa cells (CXCR4 natively expressing non-adherent cells, ATCC CRL-1432) were cultured in RPMI1640 plus 10% FBS, and pen/strept. HELA cells were maintained in RPMI1640 plus 10% FBS, pen/strept and 2 mM L-glutamine. Cos-7 cells were grown in DMEM medium with […] glucose supplemented with 10% FCS, pen/strept and 2 mM L-glutamine. All cell lines were grown at 37 °C at 5% CO2. Cell media, media supplements, PBS-buffer, HEPES, antibiotic/antimycotic, pen/strept, non essential amino acid, L-glutamine, β-mercaptoethanol and sera were purchased from Gibco (Pailsey, UK). All fine chemicals were supplied by Merck (Darmstadt, Germany).
The chemotactic response of Namalwa cells (ATCC CRL-1432) to a gradient of stromal cell-derived factor 1α (SDF-1) was measured using a modified Boyden chamber chemotaxis system (ChemoTx; Neuroprobe). In this system, the upper chamber of each well is separated from the lower chamber containing the chemoattractant SDF-1 by a polycarbonate membrane (5µm pore size). A circular area of that membrane in the region that covers each lower well is enclosed by a hydrophobic mask to retain the cell suspension within this area. The system was prepared by loading the bottom wells with aliquots of […] chemotaxis medium (RPMI 1640 without Phenol red + 0.5% BSA) comprising either appropriate serial dilutions of peptides or no peptide at all in combination with SDF-1 (0.9 nM) or without the chemoattractant. The membrane was placed over the bottom wells, and aliquots of 50 µL of a suspension of Namalwa cells (3.6 x 10^6 cells/mL) in chemotaxis medium, premixed with chemotaxis medium comprising either appropriate serial dilutions of peptides or no peptide at all, was delivered onto each of the hydrophobically limited regions of the upper surface of the membrane. The cells were allowed to migrate into the bottom chamber for 5 h at 37 °C in 5% CO2. After this period, the membrane was removed and its topside was carefully wiped and washed with PBS to eliminate non-migrated cells. Migrated cells were transferred using a "funnel" adaptor to a receiving 96-well plate and the cell number was determined by using the CyQuant™ NF cell proliferation assay (Invitrogen) based on the measurement of cellular DNA content via fluorescent dye binding. Following the manufacturer's directions, 50 µL of CyQuant™ dye reagent/HBSS buffer (1/500 [v/v]) were added to each well of the above mentioned receiving 96-well plate. After incubation for 0.5 h at room temperature the plate was sealed and the fluorescence intensity of each sample was measured by using a Wallac 1420 VICTOR^2™ plate reader (PerkinElmer) with excitation at 485 nm and emission detection at 535 nm. Finally, the data were normalized by using the controls and IC50-values were determined using GraphPad Prism™ (GraphPad) by fitting a logarithmic curve to the averaged datapoints.

[2] = Plasma stability, mouse plasma; type: in vitro ADME
Protocol: The stability of the peptides in human and mouse plasma was determined by applying the following method: 346.5 µL/deep well of freshly thawed human plasma (Basler Blutspende-dienst) and mouse plasma (Harlan Sera-Lab, UK), respectively, were spiked with 3.5 µL/well of compound dissolved in DMSO/H2O (90/10 [v/v], 1 mM, triplicate) and incubated at 37° C. At t = 0, 15, 30, 60, 120, 240 and 1440 min aliquots of 50 µL were transferred to filtration plate wells containing 150 µL/well of 2% formic acid in acetonitrile. Following shaking for 2 min the occurred suspensions were filtrated by vacuum. 100 µL of each filtrate were transferred to a propylene microtiter plate and dried under N2. The residual solids were reconstituted by adding 100 µL/well of water/acetonitrile, 95/5 (v/v) + 0.2% formic acid and analyzed by LC/MS as follows: Column: Waters, XBridge C18, mobile phases: (A) water + 0.1% formic acid and (B) acetonitrile/water, 95/5 (v/v) + 0.1% formic acid, gradient: 5%-100% (B) in 1.8 minutes, electrospray ionization, MRM detection (triple quadrupole). The peak areas were determined and triplicate values are averaged. The stability is expressed in percent of the initial value at t = 0. (tx/t0 x 100). By using the TREND function of EXCEL (Microsoft Office 2003) T1/2 were determined.

[3] = Plasma protein binding (ultrafiltration); type: in vitro ADME, human
Protocol: 495 µL aliquots of human plasma (Basler Blutspendedienst) as well as 495 µL aliquots of PBS were placed in individual deepwells of a polypropylene plate (Greiner) and spiked each with 5 µL of 1 mM solutions of peptides in 90% DMSO. After shaking the plate for 2 min at 600 rpm 150 µL aliquots of the plasma/peptide mixtures were transferred in triplicates to the polypropylene filter plate (10 kDa, Millipore) whereas 150 µL aliquots of the PBS/peptide mixtures were transferred either to the individual wells of the filter plate (filtered controls) or directly into the individual wells of the receiving plate (Greiner) (non-filtered controls). The plate sandwich consisting of filter and receiving plate was incubated for 1 h at 37°C and subsequently centrifuged at 3220 g for 2h at 15 °C. The filtrates in the receiving plate were analysed by LC/MS as follows: Column: Waters, XBridge C18, mobile phases: (A) water + 0.1% formic acid and (B) acetonitrile/water, 95/5 (v/v) + 0.1% formic acid, gradient: 5%-100% (B) in 1.8 min, electrospray ionization, MRM detection (triple quadrupole). The peak areas were determined and triplicate values are averaged. The binding is expressed in percent of the filtered and non-filtered controls by 100-(100x T1h/Tctr). Finally the average of these values is calculated.

[4] = test system: human red blood cells (hRBC); test: Hemolysis; type: cell-based
Protocol: The peptides were tested for their hemolytic activity against human red blood cells (hRBC). Fresh hRBC were washed four times with phosphate buffered saline (PBS) and centrifuged for 10 min at 3000 x g. Compounds (100 µM) were incubated with 20% hRBC (v/v) for 1 h at 37°C and shaking at 300 rpm. The final erythrocyte concentration was approximately 0.9 x 10^9 cells/mL. A value of 0% and 100% cell lysis, respectively, was determined by incubation of hRBC in the presence of PBS containing 0.001% acetic acid and 2.5% Triton X-100 in H2O respectively. The samples were centrifuged, the supernatants were 8-fold diluted in PBS buffer and the optical densities (OD) were measured at 540 nm. The 100% lyses value (OD540H2O) gave an OD540 of approximately 0.5-1.0. Percent hemolysis was calculated as follows: (OD540peptide/OD540H2O) x 100%. [formula]

[5] = Namalwa cells, SDF-1 0.9 nM, migration 5 h, read-out: IC50 [nM] ± SD, CXCR4 receptor

T1 sequence (P61073 whole entry): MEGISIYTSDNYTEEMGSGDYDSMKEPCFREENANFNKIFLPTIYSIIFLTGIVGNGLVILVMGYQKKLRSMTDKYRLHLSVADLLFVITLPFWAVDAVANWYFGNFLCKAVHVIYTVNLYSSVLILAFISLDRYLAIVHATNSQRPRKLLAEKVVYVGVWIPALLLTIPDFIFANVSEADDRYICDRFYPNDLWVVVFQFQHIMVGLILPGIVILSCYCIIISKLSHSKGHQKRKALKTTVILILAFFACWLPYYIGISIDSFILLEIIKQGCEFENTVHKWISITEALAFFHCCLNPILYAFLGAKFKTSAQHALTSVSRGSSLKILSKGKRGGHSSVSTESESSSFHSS

| SMILES | IC50 [1, 5] | Plasma stability mouse pl. T1/2 [2] | Plasma stability mouse pl. cpd left at 1440 min [2] | Plasma protein binding [3] | Hemolysis at 100 µM ([4]; red cells of human, 1 h, 100) | IC50 [1] | Plasma stability mouse pl. T1/2 ([2]; mouse plasma, 37° C, last time point 1440 min) | Hemolysis at 100 µM ([4]; 100 µM, 20% hRBC, 1 h at 37°C) |
| --- | --- | --- | --- | --- | --- | --- | --- | --- |
| CC(C)NCCCC[C@@H]1NC(=O)[C@H](CCC(N)=O)NC(=O)[C@H](Cc2ccc(O)cc2)NC(=O)[C@@H]2CSSC[C@H](NC(=O)[C@H](Cc3ccc(O)cc3)NC(=O)[C@H](Cc3c[nH]cn3)NC(=O)[C@H](Cc3ccc(O)cc3)NC(=O)[C@@H]3CCCN3C(=O)[C@H]3CCCN3C1=O)C(=O)N[C@@H](CO)C(=O)N[C@@H](C)C(=O)N1CCC[C@@H]1C(=O)N[C@@H](CCCNC(C)C)C(=O)N[C@@H](CCCNC(=N)N)C(=O)N[C@@H](Cc1ccc(O)cc1)C(=O)N2 [Ex. 1, cyclo(-Tyr^1-His^2-Tyr^3-Cys^4-Ser^5-Ala^6-^DPro^7-Orn(iPr)^8-Arg^9-Tyr^10-Cys^11-Tyr^12-Gln^13-Lys(iPr)^14-^DPro^15-Pro^16-), disulfide bond between Cys^4 and Cys^11] (cyclo(YHYCSA[dP][Orn(iPr)]RYCYQ[Lys(iPr)][dP]P); disulfide 4-11) | 0.42 ± 0.1 nM | 24 h | 100% | 30% | 1.0% | – | – | – |
| COc1ccc(C[C@@H]2NC(=O)[C@H](Cc3c[nH]cn3)NC(=O)[C@H](Cc3ccc(O)cc3)NC(=O)[C@@H]3CCCN3C(=O)[C@H]3CCCN3C(=O)[C@H](CCCCNC(C)C)NC(=O)[C@H](CCC(N)=O)NC(=O)[C@H](Cc3ccc(O)cc3)NC(=O)[C@@H]3CSSC[C@H](NC2=O)C(=O)N[C@@H](CO)C(=O)N[C@@H](C)C(=O)N[C@H](Cc2ccc(OC)cc2)C(=O)N[C@@H](CCCNC(C)C)C(=O)N[C@@H](CCCNC(=N)N)C(=O)N[C@@H](Cc2ccc(O)cc2)C(=O)N3)cc1 [Ex. 6, cyclo(-Tyr^1-His^2-Tyr(Me)^3-Cys^4-Ser^5-Ala^6-^DTyr(Me)^7-Orn(iPr)^8-Arg^9-Tyr^10-Cys^11-Tyr^12-Gln^13-Lys(iPr)^14-^DPro^15-Pro^16-), disulfide bond between Cys^4 and Cys^11] (cyclo(YHY(Me)CSA[dY](Me)[Orn(iPr)]RYCYQ[Lys(iPr)][dP]P); disulfide 4-11) | – | – | – | – | – | 0.09 ± 0.09 nM | 24 h | 2% |
| COc1ccc(C[C@@H]2NC(=O)[C@H](Cc3c[nH]cn3)NC(=O)[C@H](Cc3ccc(O)cc3)NC(=O)[C@@H]3CCCN3C(=O)[C@H]3CCCN3C(=O)[C@H](CCCCNC(C)C)NC(=O)[C@H](CCC(N)=O)NC(=O)[C@H](Cc3ccc(O)cc3)NC(=O)[C@@H]3CSSC[C@H](NC2=O)C(=O)N[C@@H](CO)C(=O)N[C@@H](C)C(=O)N2CCC[C@@H]2C(=O)N[C@@H](CCCNC(C)C)C(=O)N[C@@H](CCCNC(=N)N)C(=O)N[C@@H](Cc2ccc(O)cc2)C(=O)N3)cc1 [Ex. 2, cyclo(-Tyr^1-His^2-Tyr(Me)^3-Cys^4-Ser^5-Ala^6-^DPro^7-Orn(iPr)^8-Arg^9-Tyr^10-Cys^11-Tyr^12-Gln^13-Lys(iPr)^14-^DPro^15-Pro^16-), disulfide bond between Cys^4 and Cys^11] (cyclo(YHY(Me)CSA[dP][Orn(iPr)]RYCYQ[Lys(iPr)][dP]P); disulfide 4-11) | 0.69 ± 0.43 nM | 24 h | 100% | 48% | 1.0% | – | – | – |
| COc1ccc(C[C@H]2NC(=O)[C@H](C)NC(=O)[C@H](CO)NC(=O)[C@@H]3CSSC[C@H](NC(=O)[C@H](Cc4ccc(O)cc4)NC(=O)[C@H](CCCNC(=N)N)NC(=O)[C@H](CCCNC(C)C)NC2=O)C(=O)N[C@@H](Cc2ccc(O)cc2)C(=O)N[C@@H](CCC(N)=O)C(=O)N[C@@H](CCCCNC(C)C)C(=O)N2CCC[C@@H]2C(=O)N2CCC[C@H]2C(=O)N[C@@H](Cc2ccc(O)cc2)C(=O)N[C@@H](Cc2c[nH]cn2)C(=O)N[C@@H](C)C(=O)N3)cc1 [Ex. 4, cyclo(-Tyr^1-His^2-Ala^3-Cys^4-Ser^5-Ala^6-^DTyr(Me)^7-Orn(iPr)^8-Arg^9-Tyr^10-Cys^11-Tyr^12-Gln^13-Lys(iPr)^14-^DPro^15-Pro^16-), disulfide bond between Cys^4 and Cys^11] (cyclo(YHACSA[dY](Me)[Orn(iPr)]RYCYQ[Lys(iPr)][dP]P); disulfide 4-11) | 0.18 ± 0.09 nM | 24 h | 60% | 56% | 0% | – | – | – |
